In patent US20200188319A1, “Use Of Inhaled Nitric Oxide For The Treatment Of Pulmonary Hypertension Associated With Lung Disease” (Bellerophon Pulse Technologies LLC, priority 2017, published 2020):
Several values for one entry are separate records, joined by “and”; a condition that tells them apart may be missing. Equal entries are not always repeated. Where two headings read alike, the source gives them in different places.

Key:
[1] = tested on: PH-IPF subjects; experiment: Acute iNO: blood vessel volume by HRCT in PH-IPF subjects on LTOT; assay type: in vivo, human
Description: This study was an exploratory, three-part, clinical study to assess the effect of pulsed iNO on functional pulmonary imaging parameters in subjects with PH-COPD on LTOT (Part 1) PH-IPF on LTOT (Part 2 and Part 3) (IK-7002-COPD-006; NCT02267655). The objective of this exploratory study was to examine the utility of high resolution computed tomography (HRCT) to measure changes in functional respiratory imaging parameters as a function of short term iNO administration using a pulsed NO delivery device in subjects with PH-IPF (Part 2 and Part 3) on LTOT. The primary endpoint in this exploratory study is the change from baseline in lobar blood volume at total lung capacity (TLC) after dosing with pulsed iNO (Part 1), iNO or Placebo (Part 2a) and after 4 weeks iNO treatment (Part 3b) as measured by HRCT.
This was an exploratory clinical study to evaluated the utility of HRCT to measure the pharmacodynamic effects of short term pulsed administration of iNO using a pulsed NO delivery device in subjects with PH-IPF (Part 2 and Part 3) on LTOT.
(§1) The 2 subjects enrolled in Part 2 were randomly assigned for Part 2a to 1 of 2 sequences to receive iNO utilizing the NO cylinder concentration (4,880 ppm) at a dose of 75 mcg/kg IBW/hr or placebo set at a dose of 75 mcg/kg IBW/hr.
(§2) The 2 subjects enrolled in Part 3a each received three different doses of iNO utilizing NO cylinder concentration (4,880 ppm) at a dose of 5 mcg/kg IBW/hr, 10 mcg/kg IBW/hr and 30 mcg/kg IBW/hr, all with LTOT. For each dose, the change in PAP pressure and the change in cardiac output was evaluated by RHC. The investigator could decide after each dose to continue with the following dose or not.
(§3) […], the vasodilation and the hemodynamics were assessed. During the chronic phase, the focus was exercise capacity. Oxygen saturation during exercise was evaluated both at baseline as well as after 4 weeks of chronic treatment with iNO. Both the acute and chronic phases evaluated iNO doses of 30 and 75 mcg/kg IBW/hr.

[2] = tested on: PH-IPF subjects; experiment: Acute iNO: sPAP in PH-IPF subjects; assay type: in vivo, human
Description: In Part 2 of the study the subjects needed to have severe PH, therefore PH in Part 2 was defined as sPAP≥50 mm Hg by 2-D echocardiogram. In Part 3 PH was defined as sPAP≥35 mm Hg by echocardiogram (Part 3).
as §1, §2, §3

[3] = tested on: PH-IPF subjects; experiment: Chronic iNO: SpO2 during 6MWT in PH-IPF subjects; assay type: in vivo, human; settings: during exercise (6MWT)
Description: The secondary endpoints of Part 2b (chronic dosing) were change in 6MWT with Borg CR10 leg fatigue and dyspnea scale and SpO2, at the beginning and end of the 6MWT and symptoms evaluated using a questionnaire with after 4 weeks use of iNO at a dose of 75 mcg/kg IBW/hr and 2 weeks post discontinuation of iNO.
The secondary endpoints of Part 3b (chronic dosing) were change in 6MWT with Borg CR10 leg fatigue and dyspnea scale and SpO2, at the beginning and end of the 6MWT and symptoms evaluated using a questionnaire after 4 weeks use of iNO at a dose of 30 mcg/kg IBW/hr.
In Part 2b and Part 3b change in 6MWT with Borg CR10 leg fatigue and dyspnea scale and SpO2, at the beginning and end of the 6MWT, and a symptoms questionnaire were used to assess the effects of long term pulsed iNO administered using a pulsed NO delivery device in subjects with PH associated with IPF on LTOT.
(§4) One patient from Part 2a entered into Part 2b. During Part 2b patient receive iNO utilizing NO cylinder concentration (4,880 ppm) at a dose of 75 mcg/kg IBW/hr during 4 weeks for at least 12 hours/day.
(§5) The 2 patients from Part 3a entered Part 3b. During Part 3b, patients received iNO utilizing NO cylinder concentration (4,880 ppm) at a dose of 30 mcg/kg IBW/hr.
as §3

[4] = tested on: PH-IPF subjects; experiment: Chronic iNO: TAPSE (RV function) in PH-IPF subjects; assay type: in vivo, human
Description: (§6) One or more embodiments of the present invention also relate to maintaining and/or improving right ventricular (RV) function using long-term iNO therapy. Maintenance and/or improvements in RV function can be assessed by many echocardiographic measurements. One such quantitative approach to assess RV function is the measurement of the tricuspid annular plane systolic excursion (TAPSE). The TAPSE estimates RV systolic function by measuring the level of systolic excursion of the lateral tricuspid valve annulus towards the apex. An excellent correlation between the TAPSE and RV ejection fraction as assessed by radionuclide angiography has previously been established and the approach appears reproducible and proven to be a strong predictor of prognosis in heart failure. [Reference: Heart. 2006 April; 92(Suppl 1): i19-i26.]
as §4, §5
Subject 1 received pulsed iNO at a dose of 75 mcg/kg IBW/hr for 4 weeks, and Subject 3 received pulsed iNO at a dose of 30 mcg/kg IBW/hr for 4 weeks.

[5] = tested on: PH-IPF subjects; experiment: Safety of iNO dose in PH-IPF subjects (PAP, RHC-monitored titration); assay type: in vivo, human
Experimental: The safety endpoints in this study were: • 1. Incidence and severity of treatment emergent adverse events (AEs), including those related to device deficiency; • 2. Incidence of MetHb levels >7.0%; • 3. New symptoms that may be due to rebound PH associated with a temporal acute withdrawal of investigational study drug (i.e., symptoms occurring within 20 minutes of acute withdrawal and including those associated with investigational medical device malfunction or failure): systemic arterial oxygen desaturation, hypoxemia, bradycardia, tachycardia, systemic hypotension, near-syncope, syncope, ventricular fibrillation, and/or cardiac arrest; • 4. New or worsening symptoms of left heart failure or pulmonary edema; and • 5. Any decrease in systemic oxygenation measured by oxygen saturation of arterial blood by pulse oximetry (SpO2), i.e., hypoxia or oxygen saturation decrease, deemed by the Investigator to be clinically significant.
The initial protocol intended that 4 subjects would be enrolled in Part 2. […] It was decided to temporarily stop recruitment. One of the 2 subjects completed 4 weeks of chronic use in Part 2b.
In the amendment a total of 2 subjects participated in Part 3. The dose in Part 3 was lower than in Part 2 and each subject was titrated to the optimum dose as determined by the investigator. […] The dose was monitored with a RHC in place. […]

[6] = tested on: PH-COPD subjects; experiment: Chronic iNO: TAPSE in PH-COPD subjects; assay type: in vivo, human
Description: as §6
(§7) This study is an open label Phase 1 study of iNO therapy in subjects with PH-COPD (PULSE-COPD-007; NCT03135860). The primary outcome of this study is the change in lobar blood volume at total lung capacity with iNO and the change in lobar blood volume with iNO after 4 weeks of treatment with iNO as measured by HRCT.
(§8) Subjects also had sPAP≥38 mm Hg as measured by echocardiogram, a post-bronchodilatory FEV1/FVC<0.7 and a FEV1<60% predicted. All subjects were at least 40 years old and were current or former smokers with at least 10 pack-years of tobacco cigarette smoking before study entry. All subjects also had been receiving LTOT for at least 3 months for at least 10 hours per day.
(§9) The PH-COPD subjects received pulsed iNO therapy for 4 weeks for at least 12 hours/day. The iNO was administered utilizing a 4,880 ppm NO cylinder concentration.
These subjects were diagnosed with PH-COPD and received 4 weeks of treatment with iNO at a dose of 30 mcg/kg IBW/hr. The results verify the increase in TAPSE which correlates to RV function.

[7] = tested on: PH-COPD subjects; experiment: Acute iNO: blood vessel volume by HRCT in PH-COPD subjects; assay type: in vivo, human; settings: acute assessment
Description: as §7, §8
(§10) A further analysis was performed of seven PH-COPD subjects that completed 4 weeks of treatment with iNO at a dose of 30 mcg/kg IBW/hr. The 6MWD and sPAP results are also presented in FIGS. 10 and 11, respectively.

[8] = tested on: PH-COPD subjects; experiment: Chronic iNO: sPAP by echocardiogram in PH-COPD subjects; assay type: in vivo, human; settings: group value, FIG. 11
Description: as §7, §8, §9, §10
As shown in FIG. 10, the change in 6MWD after 2 weeks of iNO therapy is +53.9 meters (p=0.02). Similarly, the change in 6MWD after 4 weeks of iNO therapy is +50.7 meters (p=0.04). In the literature, 27-54 meter improvements in 6MWD are considered clinically significant as measured by patient perceptions of improvement.

[9] = tested on: PH-COPD subjects; experiment: Chronic iNO: six-minute walk distance (6MWD) in PH-COPD subjects; assay type: in vivo, human; settings: seven PH-COPD subjects, group value, iNO 30 mcg/kg/IBW, FIG. 10
Description: Oxygen saturation can be measured before, during or after tests that assess exercise capacity. One approach to assess exercise capacity is the six-minute walk test, which provides the 6MWD. Other measurements that can be used to assess exercise capacity include, but are not limited to, shuttle walk test, activity level, forced exercise, maximal exercise test, treadmill, bicycle and cardiopulmonary exercise test.
as §7, §8, §9
A further analysis was performed of seven PH-COPD subjects that completed 4 weeks of treatment with iNO at a dose of 30 mcg/kg IBW/hr. […]

[10] = tested on: pulmonary arterial hypertension (PAH); settings: cited from earlier work
[11] = iNO 30 mcg/kg IBW/hr, PH-IPF Patients 3 and 4
[12] = Average of PH-IPF Subjects 1 (75) and 3 (30 mcg/kg IBW/hr), 4 weeks
[13] = PH-IPF Subject 1, pulsed iNO 75 mcg/kg IBW/hr for 4 weeks
[14] = PH-IPF Subject 3, pulsed iNO 30 mcg/kg IBW/hr for 4 weeks
[15] = Average of four PH-COPD subjects, iNO 30 mcg/kg IBW/hr for 4 weeks

SMILES: [N]=O [iNO, nitric oxide]
- Acute change in blood vessel volume (%) [1, 11]: 2.8 ± 3.0% and 10.1 ± 3.4%
- regional vasodilation in the lungs (targeting) ([1]; iNO 30 mcg/kg IBW/hr, Patients 3 & 4, FIGS. 7 and 8): clear targeting of the drug
- overall vasodilation ([1]; iNO 30 mcg/kg IBW/hr, range over Patients 3 & 4): 2.8-10.1%
- regional vasodilation in the lungs (targeting) ([1]; iNO 75 mcg/kg IBW/hr, Patients 1 & 2, FIGS. 5 and 6): little to no targeted vasodilation
- overall vasodilation ([1]; iNO 75 mcg/kg IBW/hr, range over Patients 1 & 2): 14.2-34.2%
- Acute Change in sPAP (%) [2, 11]: −14.3% and −23.3%
- Acute Change in sPAP (%) ([2]; iNO 75 mcg/kg IBW/hr, PH-IPF Patients 1 and 2): −9.3% and −9.7%
- SpO2 Nadir ([3]; 4 Weeks iNO 30 mcg/kg IBW/hr, Patient 3, baseline 83): 89
- SpO2 Average ([3]; 4 Weeks iNO 30 mcg/kg IBW/hr, Patient 3, baseline 88.9): 95.7
- SpO2 Nadir ([3]; 4 Weeks iNO 75 mcg/kg IBW/hr, Patient 1, baseline 76): 79
- SpO2 Average ([3]; 4 Weeks iNO 75 mcg/kg IBW/hr, Patient 1, baseline 89.4): 86.6
- TAPSE % Change, Average [4, 12]: 15%
- TAPSE Increase, Average [4, 12]: 3
- TAPSE 4 Week, Average ([4]; Average of PH-IPF Subjects 1 (75) and 3 (30 mcg/kg IBW/hr), 4 weeks, baseline 20): 23
- TAPSE % Change [4, 13]: 21%
- TAPSE Increase [4, 13]: 3
- TAPSE 4 Week ([4]; PH-IPF Subject 1, pulsed iNO 75 mcg/kg IBW/hr for 4 weeks, baseline 14): 17
- TAPSE % Change [4, 14]: 12%
- TAPSE Increase [4, 14]: 4
- TAPSE 4 Week ([4]; PH-IPF Subject 3, pulsed iNO 30 mcg/kg IBW/hr for 4 weeks, baseline 25): 28
- PAP after discontinuation of iNO ([5]; iNO 75 mcg/kg IBW/hr, the two IPF patients of Part 2): sudden increase in PAP after discontinuation
- dose titration monitored with RHC ([5]; iNO titrated to 30 mcg/kg IBW/hr, 2 subjects of Part 3): safely
- TAPSE % Change, Average [6, 15]: 25%
- TAPSE Increase, Average [6, 15]: 4
- TAPSE 4 Week, Average ([6]; Average of four PH-COPD subjects, iNO 30 mcg/kg IBW/hr for 4 weeks, baseline 16): 20
- TAPSE after iNO therapy was discontinued ([6]; PH-COPD subjects, N=5, FIG. 12): 19.0
- TAPSE after chronic iNO therapy ([6]; PH-COPD subjects, N=7, baseline 18.8 (N=6), FIG. 12): 21.3
- ventilation-vasodilation correlation ([7]; PH-COPD subjects, p=0.03, FIG. 9): significant
- increase in blood vessel volume on iNO (average) ([7]; nine PH-COPD subjects, statistically significant): 4.2%
- sPAP 4 weeks after iNO therapy was discontinued ([8]; PH-COPD subjects): 58.0 mm Hg
- sPAP after 4 weeks of iNO therapy ([8]; seven PH-COPD subjects, iNO 30 mcg/kg IBW/hr, baseline 60.3 mm Hg, p=0.02): 48.3 mm Hg
- change in 6MWD after 2 weeks of iNO therapy ([9]; p=0.02): +53.9 meters
- change in 6MWD after 4 weeks of iNO therapy ([9]; p=0.04): +50.7 meters
- efficacy for the treatment of PAH ([10]; iNO dose 25 mcg/kg IBW/hr, same previous clinical study): inefficacious
- efficacy for the treatment of PAH ([10]; iNO dose 75 mcg/kg IBW/hr, previous clinical study): effective
